Where two headings read alike, the source gives them in different places. Marks after values point to notes of the source that are not given here. Starred links: 1 amine or outer side, 2 acyl side, 3 side chain; linkers in the order of their positions; H or OH if unused. Non-standard residues stand in square brackets, D forms with d. Residues, ends and D or L forms follow the SMILES beside them. Groups on a side chain read outwards from the residue. *: point of attachment. C20 diacid = O=C(O)CCCCCCCCCCCCCCCCCCC(=O)*; γGlu = O=C(O)[C@H](CCC(=O)[*:2])N[*:1]; NMeI = CC[C@H](C)[C@H](NC)C(=O)O; Nle = CCCC[C@H](N)C(=O)O; AEEA = NCCOCCOCC(=O)O; Aib = CC(C)(N)C(=O)O
Experiments:
hCRHR2 = biological target: T1, hCRHR2 (Homo sapiens, UniProt Q13324); assay: HTRF cAMP assay, determination of hCRHR2 potency (peptide libraries 5 conc., purified peptides 11 conc.); assay type: cell-based; conditions: for EC50: read-out: hCRHR2 EC50
T1 sequence (Q13324 1-411): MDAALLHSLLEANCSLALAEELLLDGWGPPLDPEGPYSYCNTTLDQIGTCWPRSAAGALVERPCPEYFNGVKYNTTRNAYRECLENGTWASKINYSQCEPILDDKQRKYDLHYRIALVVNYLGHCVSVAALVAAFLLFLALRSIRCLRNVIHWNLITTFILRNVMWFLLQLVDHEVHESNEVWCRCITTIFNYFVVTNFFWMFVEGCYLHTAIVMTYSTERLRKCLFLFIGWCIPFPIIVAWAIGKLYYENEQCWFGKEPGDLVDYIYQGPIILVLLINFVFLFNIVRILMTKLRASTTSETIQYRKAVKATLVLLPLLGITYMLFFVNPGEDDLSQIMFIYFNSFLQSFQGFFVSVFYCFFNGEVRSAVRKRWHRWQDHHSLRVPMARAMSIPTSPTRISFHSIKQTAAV
Procedure, shortened: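 CHO-K1 cells stably expressing human CRHR2, thawed from frozen stocks just before use and run in suspension; cAMP measured by competitive HTRF immunoassay (cryptate anti-cAMP, d2-cAMP). Agonist peptides tested at 5 (libraries) or 11 (purified) concentrations; EC50 from sigmoid variable-slope nonlinear regression.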

hCRHR1 = biological target: T2, hCRHR1 (Homo sapiens, UniProt P34998); assay: HTRF cAMP assay, determination of hCRHR1 potency (peptide libraries 5 conc., purified peptides 11 conc.); assay type: cell-based
T2 sequence (P34998 24-415): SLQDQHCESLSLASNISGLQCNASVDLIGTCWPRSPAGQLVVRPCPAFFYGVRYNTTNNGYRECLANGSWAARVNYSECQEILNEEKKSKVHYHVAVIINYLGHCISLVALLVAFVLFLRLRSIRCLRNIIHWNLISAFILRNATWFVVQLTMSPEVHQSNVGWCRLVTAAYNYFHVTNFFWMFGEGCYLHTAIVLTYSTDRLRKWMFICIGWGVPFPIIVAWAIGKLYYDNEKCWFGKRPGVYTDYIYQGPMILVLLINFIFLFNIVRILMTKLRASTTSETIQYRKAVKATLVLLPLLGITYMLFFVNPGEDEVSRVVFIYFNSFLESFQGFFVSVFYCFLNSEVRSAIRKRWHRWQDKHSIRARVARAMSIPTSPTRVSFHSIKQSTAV
Procedure, shortened: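 CHO-K1 cells stably expressing human CRHR1, thawed from frozen stocks just before use, were stimulated in suspension with agonist peptides. cAMP was measured by HTRF competitive immunoassay (cryptate anti-cAMP antibody vs d2-cAMP).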

PK in rats = assay type: in vivo; design: T½ / MRT: unit not given here; conditions: for half-life: read-out: T½ (converted)
Procedure, shortened: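 Lean male Sprague Dawley rats (n = 3 per group) got a two-peptide combination at 50 nmol/kg IV and SC. Plasma was sampled from 0.17 to 96 h post dose and analysed by LC-MSMS. PK parameters came from non-compartmental analysis.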

[1] = Effect on acute food intake in mice; assay type: in vivo; conditions: single subcutaneous dose
Procedure, shortened: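 Male NMRI mice (n=7-8 per group) were fasted from six hours before the dark phase. They received a single subcutaneous peptide dose one hour before dark onset. Hourly food intake was monitored for 72 h and expressed as percent reduction versus vehicle, analysed by one-way ANOVA with Dunnett's test.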

[2] = male, Sprague Dawley (RJHan:SD), in vivo, iv, Rat, 50 nmol/kg i.v.
[3] = male, Sprague Dawley (RJHan:SD), in vivo, sc, Rat, 50 nmol/kg s.c.

CCCC[C@H](NC(=O)[C@@H](NC(=O)[C@H](CCC(=O)O)NC(=O)[C@H](C)NC(=O)[C@H](CC(N)=O)NC(=O)C(C)(C)NC(=O)[C@H](CCCCNC(=O)COCCOCCNC(=O)COCCOCCNC(=O)CC[C@H](NC(=O)CC[C@H](NC(=O)CCCCCCCCCCCCCCCCCCC(=O)O)C(=O)O)C(=O)O)NC(=O)[C@H](C)NC(=O)[C@H](CCC(N)=O)NC(=O)[C@H](CCC(=O)O)NC(=O)[C@H](CCCNC(=N)N)NC(=O)[C@H](C)NC(=O)[C@H](C)NC(=O)[C@H](CCCNC(=N)N)NC(=O)[C@H](C)NC(=O)[C@H](CCCNC(=N)N)NC(=O)[C@H](C)NC(=O)[C@H](CCC(N)=O)NC(=O)[C@H](CO)NC(=O)[C@H](CC(C)C)NC(=O)[C@H](CC(C)C)NC(=O)[C@@H](NC(=O)[C@H](CCC(N)=O)NC(=O)[C@H](CC(C)C)NC(=O)[C@H](CC(C)C)NC(=O)CNC(=O)[C@@H](NC(=O)[C@@H]1CCCN1C(=O)[C@@H](NC(=O)[C@H](CC(=O)O)NC(=O)[C@H](CC(C)C)NC(=O)[C@H](CO)NC(=O)[C@H](CC(C)C)NC(=O)[C@@H](NC(=O)[C@@H]1CCCN1)C(C)C)C(C)C)[C@@H](C)CC)[C@@H](C)CC)[C@@H](C)CC)C(=O)N[C@@H](C)C(=O)N[C@@H](CCC(=O)O)C(=O)N[C@H](C(N)=O)C(C)C [SEQ ID NO: 238] (H-PVLSLDVPIGLLQILLSQARARAAREQAK([AEEA-AEEA-γGlu-γGlu-C20 diacid])[Aib]NAEI[Nle]AEV-NH2)
Selectivity ratio (hCRHR1/ hCRHR2) (hCRHR2; Table 5): >6329 | EC50 (hCRHR2; Table 5, purified peptides): 0.79 nM | EC50 (hCRHR1; Table 5, purified peptides, read-out: hCRHR1 EC50): > 5000 nM | EC50 (hCRHR1; stable cell system, Table 10, read-out: Stable EC50 (nM) hCRHR 1): > 5000 nM | MRT (PK in rats; Rat): 14.2 | T½ (PK in rats; Rat): 10.2 | clearance (PK in rats; [2]): 0.117 mL/min/kg | half-life (PK in rats; [2]): 10.2 h | Cmax (PK in rats; [3]): 91 nM | Tmax (PK in rats; [3]): 24 h | half-life (PK in rats; [3]): 11 h | bioavailability (PK in rats; male, Sprague Dawley, rat, in vivo, sc): 43% | % FI compared to vehicle, 24 h post-dosing ([1]; 30 nmol/kg): 29.73*** % | % FI compared to vehicle, 24 h post-dosing ([1]; 100 nmol/kg): 12.92*** % | % FI compared to vehicle, 24 h post-dosing ([1]; 300 nmol/kg): 7.94*** % | Solubility pH 6.5 (mg/ml) (pH 6.5): 20.4 mg/ml | Solubility pH 7.0 (mg/mL) (pH 7): 20.6 mg/mL | Solubility pH 7.5 (mg/mL) (pH 7.5): 18.0 mg/mL | Solubility pH 7.5 + phenol (mg/mL) (pH 7.5): 17.9 mg/mL | Solubility pH 7.5, target conc. =10 mg/mL (measured mg/mL) (pH 7.5): 11 mg/mL

CC[C@H](C)[C@H](NC)C(=O)N[C@H](C(=O)N[C@@H](CC(C)C)C(=O)N[C@@H](CO)C(=O)N[C@@H](CC(C)C)C(=O)N[C@@H](CC(=O)O)C(=O)N[C@H](C(=O)N1CCC[C@H]1C(=O)N[C@H](C(=O)NCC(=O)N[C@@H](CC(C)C)C(=O)N[C@@H](CC(C)C)C(=O)N[C@@H](CCC(N)=O)C(=O)N[C@H](C(=O)N[C@@H](CC(C)C)C(=O)N[C@@H](CC(C)C)C(=O)N[C@@H](CCC(=O)O)C(=O)N[C@@H](CCC(N)=O)C(=O)N[C@@H](C)C(=O)N[C@@H](CCCNC(=N)N)C(=O)N[C@@H](C)C(=O)N[C@@H](CCCNC(=N)N)C(=O)N[C@@H](C)C(=O)N[C@@H](C)C(=O)N[C@@H](CCCNC(=N)N)C(=O)N[C@@H](CCC(=O)O)C(=O)N[C@@H](CCC(N)=O)C(=O)N[C@@H](C)C(=O)N[C@@H](CCCCNC(=O)COCCOCCNC(=O)COCCOCCNC(=O)CC[C@H](NC(=O)CC[C@H](NC(=O)CCCCCCCCCCCCCCCCCCC(=O)O)C(=O)O)C(=O)O)C(=O)N[C@H](C(=O)N[C@@H](CC(N)=O)C(=O)N[C@@H](C)C(=O)N[C@@H](CCC(=O)O)C(=O)N[C@H](C(=O)N[C@@H](CC(C)C)C(=O)N[C@@H](C)C(=O)N[C@@H](CCC(=O)O)C(=O)N[C@H](C(N)=O)C(C)C)[C@@H](C)CC)[C@@H](C)O)[C@@H](C)CC)[C@@H](C)CC)C(C)C)C(C)C [SEQ ID NO: 5] (H-[NMeI]VLSLDVPIGLLQILLEQARARAAREQAK([AEEA-AEEA-γGlu-γGlu-C20 diacid])TNAEILAEV-NH2)
Selectivity ratio (hCRHR1/ hCRHR2) (hCRHR2; hCRHR1-EC50/hCRHR2-EC50): >4167 | EC50 (hCRHR2; purified peptides, CHO-K1 cells stably expressing hCRHR2, cAMP HTRF): 1.2 nM | EC50 (hCRHR1; purified peptides, CHO-K1 cells stably expressing hCRHR1, cAMP HTRF, read-out: hCRHR1 EC50): > 5000 nM | MRT (PK in rats; Rat): 7.9 | T½ (PK in rats; Rat): 8.6 | % FI compared to vehicle, 24 h post-dosing ([1]; 30 nmol/kg): 45.67*** % | % FI compared to vehicle, 24 h post-dosing ([1]; 100 nmol/kg): 18.68*** % | % FI compared to vehicle, 24 h post-dosing ([1]; 300 nmol/kg): 15.93*** % | Solubility pH 7.5, target conc. =10 mg/mL (measured mg/mL) (pH 7.5): 11 mg/mL

Reference: patent publication EP4810052A2, “HCRHR2 SELECTIVE POLYPEPTIDES” (Gubra A/S, priority 2023, dated 2026)
